PMC8948214, “Transport efficiency of AtGTR1 dependents on the hydrophobicity of transported glucosinolates” (Scientific Reports, 2022)

Tests used:
AtGTR1 = biological target: T1, AtGTR1 (Arabidopsis thaliana, UniProt Q944G5); assay: inhibition of glucotropaeolin uptake in yeast, RP-HPLC; format: cell-based
T1 construct: gene NPF2.10; full-length synthesized cDNA with C-terminal 8-His-tag in pESC-URA; expressed in S. cerevisiae FGY217; theoretical 68 kDa; homodimer after purification
T1 sequence (Q944G5 31-636): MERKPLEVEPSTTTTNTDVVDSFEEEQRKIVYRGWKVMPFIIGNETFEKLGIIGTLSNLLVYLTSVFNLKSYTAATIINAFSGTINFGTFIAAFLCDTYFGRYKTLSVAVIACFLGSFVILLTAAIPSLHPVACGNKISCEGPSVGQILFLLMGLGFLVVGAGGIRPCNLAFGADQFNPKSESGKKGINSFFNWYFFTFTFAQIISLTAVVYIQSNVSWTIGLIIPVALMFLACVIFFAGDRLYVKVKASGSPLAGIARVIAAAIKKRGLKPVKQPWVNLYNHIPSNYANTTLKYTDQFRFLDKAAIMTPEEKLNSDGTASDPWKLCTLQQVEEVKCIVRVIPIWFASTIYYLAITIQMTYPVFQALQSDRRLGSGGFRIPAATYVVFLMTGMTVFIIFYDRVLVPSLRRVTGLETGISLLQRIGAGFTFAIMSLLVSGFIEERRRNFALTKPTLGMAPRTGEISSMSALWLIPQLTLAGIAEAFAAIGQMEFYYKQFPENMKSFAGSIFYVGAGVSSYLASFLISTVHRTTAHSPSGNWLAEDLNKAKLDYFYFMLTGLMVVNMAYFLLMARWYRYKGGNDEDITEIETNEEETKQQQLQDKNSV

[1] = substrate: O=S(=O)(O)O/N=C(/Cc1c[nH]c2ccccc12)S[C@@H]1O[C@H](CO)[C@@H](O)[C@H](O)[C@H]1O; assay: yeast uptake assay, RP-HPLC of desulfo-glucosinolate; format: cell-based, Arabidopsis thaliana; conditions: 15 min uptake, 2.5-320 μM substrate, pH 5.5, 30 °C, proton-coupled, apparent
[2] = substrate: O=S(=O)(O)O/N=C(\Cc1ccccc1)S[C@@H]1O[C@H](CO)[C@@H](O)[C@H](O)[C@H]1O; assay: as above; format: cell-based, Arabidopsis thaliana; conditions: 15 min uptake, 2.5-320 μM substrate, pH 5.5, 30 °C, proton-coupled, apparent

O=C(O)Cc1c[nH]c2ccccc12 [IAA, 3-indoleacetic acid]
IC50 (AtGTR1): 762 ± 48.1 µM

CC/C=C\C[C@H]1C(=O)CC[C@@H]1CC(=O)O [JA, jasmonic acid]
IC50 (AtGTR1): 938 ± 114 µM

O=C(O)c1ccccc1O [SA, salicylic acid]
IC50 (AtGTR1): 630 ± 47.5 µM

B1: AtGTR1 (Arabidopsis thaliana) (protein)
chain: T1 sequence (Q944G5 31-636)
notes: full-length synthesized cDNA with C-terminal 8-His-tag in pESC-URA; expressed in S. cerevisiae FGY217; theoretical 68 kDa; homodimer after purification
Km [1]: 8.2 ± 0.60 µM
Km [2]: 13.6 ± 1.55 µM
